Our source for the relative viability values is the supplement of paper PMC10307832.

Experiment in all cases: relative viability (nuclei count vs DMSO), 5 days (fraction); higher = more cells survive
Compound in the assay “R406 + Phenformin”: COc1cc(Nc2ncc(F)c(Nc3ccc4c(n3)NC(=O)C(C)(C)O4)n2)cc(OC)c1OC [R406] + N=C(N)NC(=N)NCCc1ccccc1 [Phenformin] (partner 250 µM)
In short, it runs like this:
(§1)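 For relative viability, nuclei counts in treated wells were divided by those in vehicle wells. Lung cancer cell lines had been pin-tool dosed in 1536-well plates the day after seeding and cultured for 5 days, then fixed and stained in one step (final 0.05% Triton X-100, 1% formaldehyde, 1 ug/ml Hoechst) and imaged at 4×. Doses were one drug alone or a fixed anchor-drug dose plus five library-drug doses (not always all listed) in √10 steps, and values are duplicate-plate medians.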

Compound in the assay “Daporinad + Trametinib”: O=C(/C=C/c1cccnc1)NCCCCC1CCN(C(=O)c2ccccc2)CC1 [Daporinad] + CC(=O)Nc1cccc(-n2c(=O)n(C3CC3)c(=O)c3c(Nc4ccc(I)cc4F)n(C)c(=O)c(C)c32)c1 [Trametinib] (partner 0.02 µM)
In short, it runs like this: as §1

Compound in the assay “Daporinad + Pictilisib”: O=C(/C=C/c1cccnc1)NCCCCC1CCN(C(=O)c2ccccc2)CC1 [Daporinad] + CS(=O)(=O)N1CCN(Cc2cc3nc(-c4cccc5[nH]ncc45)nc(N4CCOCC4)c3s2)CC1 [Pictilisib] (partner 1 µM)
In short, it runs like this: as §1

Compound in the assay “Daporinad + Vorinostat”: O=C(/C=C/c1cccnc1)NCCCCC1CCN(C(=O)c2ccccc2)CC1 [Daporinad] + O=C(CCCCCCC(=O)Nc1ccccc1)NO [Vorinostat] (partner 1 µM)
In short, it runs like this: as §1

As for NCI-H1666, the relative viability with R406 + Phenformin (first compound 0.08 µM) stood at 0.542; in the assay with R406 + Phenformin (first compound 0.253 µM), 0.576; with R406 + Phenformin (first compound 0.8 µM), 0.59; with R406 + Phenformin (first compound 2.53 µM), 0.616; with R406 + Phenformin (first compound 8 µM), 0.476; in the assay with Daporinad + Trametinib (first compound 0.0005 µM) it was 0.692. For the same cell line, the relative viability with Daporinad + Trametinib (first compound 0.001581 µM) amounted to 0.843; in the assay with Daporinad + Trametinib (first compound 0.005 µM), 0.821; in the assay with Daporinad + Trametinib (first compound 0.01581 µM), 0.9; with Daporinad + Pictilisib (first compound 0.0005 µM), 0.508; with Daporinad + Pictilisib (first compound 0.001581 µM), 0.482; with Daporinad + Pictilisib (first compound 0.005 µM), 0.456. The relative viability with Daporinad + Pictilisib (first compound 0.01581 µM) turned out to be 0.494; with Daporinad + Vorinostat (first compound 0.0005 µM), 0.98; in the assay with Daporinad + Vorinostat (first compound 0.001581 µM) it was 1.03; in the assay with Daporinad + Vorinostat (first compound 0.005 µM), 0.956; with Daporinad + Vorinostat (first compound 0.01581 µM), 1.07.
In the case of NCI-H1993, the relative viability with R406 + Phenformin (first compound 0.08 µM) came to 0.503; in the assay with R406 + Phenformin (first compound 0.253 µM) it was 0.474; with R406 + Phenformin (first compound 0.8 µM) it was 0.525; with R406 + Phenformin (first compound 2.53 µM), 0.505; with R406 + Phenformin (first compound 8 µM), 0.569; with Daporinad + Trametinib (first compound 0.0005 µM) it was 0.485. In addition, the relative viability worked out at 0.514 with Daporinad + Trametinib (first compound 0.001581 µM); 0.633 with Daporinad + Trametinib (first compound 0.005 µM); 0.555 in the assay with Daporinad + Trametinib (first compound 0.01581 µM); 0.925 with Daporinad + Pictilisib (first compound 0.0005 µM); 0.684 with Daporinad + Pictilisib (first compound 0.001581 µM); 0.798 in the assay with Daporinad + Pictilisib (first compound 0.005 µM). Besides, the relative viability is 0.869 with Daporinad + Pictilisib (first compound 0.01581 µM); 0.766 with Daporinad + Vorinostat (first compound 0.0005 µM); 0.723 with Daporinad + Vorinostat (first compound 0.001581 µM); 0.775 with Daporinad + Vorinostat (first compound 0.005 µM); 0.88 in the assay with Daporinad + Vorinostat (first compound 0.01581 µM).
For the cell line NCI-H1975, the relative viability in the assay with R406 + Phenformin (first compound 0.08 µM) came to 0.386; in the assay with R406 + Phenformin (first compound 0.253 µM) it was 0.463; in the assay with R406 + Phenformin (first compound 0.8 µM) it was 0.421; in the assay with R406 + Phenformin (first compound 2.53 µM) it was 0.224; with R406 + Phenformin (first compound 8 µM), 0.127; with Daporinad + Trametinib (first compound 0.0005 µM), 0.329. For the same cell line, the relative viability with Daporinad + Trametinib (first compound 0.001581 µM) came out at 0.286; with Daporinad + Trametinib (first compound 0.005 µM) it was 0.341; with Daporinad + Trametinib (first compound 0.01581 µM), 0.454; in the assay with Daporinad + Pictilisib (first compound 0.0005 µM), 0.267; with Daporinad + Pictilisib (first compound 0.001581 µM), 0.333; with Daporinad + Pictilisib (first compound 0.005 µM) it was 0.315. In addition, the relative viability worked out at 0.304 with Daporinad + Pictilisib (first compound 0.01581 µM); 0.748 in the assay with Daporinad + Vorinostat (first compound 0.0005 µM); 0.728 with Daporinad + Vorinostat (first compound 0.001581 µM); 0.813 with Daporinad + Vorinostat (first compound 0.005 µM); 0.689 in the assay with Daporinad + Vorinostat (first compound 0.01581 µM).
HCC-44: the relative viability with R406 + Phenformin (first compound 0.08 µM) is 0.15; in the assay with R406 + Phenformin (first compound 0.253 µM) it was 0.22; with R406 + Phenformin (first compound 0.8 µM), 0.196; in the assay with R406 + Phenformin (first compound 2.53 µM), 0.18; with R406 + Phenformin (first compound 8 µM), 0.127; with Daporinad + Trametinib (first compound 0.0005 µM), 1.02. Also, the relative viability worked out at 1.15 with Daporinad + Trametinib (first compound 0.001581 µM); 1.08 in the assay with Daporinad + Trametinib (first compound 0.005 µM); 1.07 with Daporinad + Trametinib (first compound 0.01581 µM); 0.643 with Daporinad + Pictilisib (first compound 0.0005 µM); 0.658 with Daporinad + Pictilisib (first compound 0.001581 µM); 0.706 in the assay with Daporinad + Pictilisib (first compound 0.005 µM). In addition, the relative viability is 0.657 with Daporinad + Pictilisib (first compound 0.01581 µM); 0.928 with Daporinad + Vorinostat (first compound 0.0005 µM); 1.18 in the assay with Daporinad + Vorinostat (first compound 0.001581 µM); 1.19 with Daporinad + Vorinostat (first compound 0.005 µM); 1.03 with Daporinad + Vorinostat (first compound 0.01581 µM).
